In paper PMC4858680, “A platinum-based hybrid drug design approach to circumvent acquired resistance to molecular targeted tyrosine kinase inhibitors” (Scientific Reports, 2016) one finds remaining activity and Percent control data, which are given here for two molecules.

For experiment [1], the target named is T1, FLT3(N841I) (Homo sapiens, UniProt P36888, N841I).
T1 sequence (P36888 27-993 N841I): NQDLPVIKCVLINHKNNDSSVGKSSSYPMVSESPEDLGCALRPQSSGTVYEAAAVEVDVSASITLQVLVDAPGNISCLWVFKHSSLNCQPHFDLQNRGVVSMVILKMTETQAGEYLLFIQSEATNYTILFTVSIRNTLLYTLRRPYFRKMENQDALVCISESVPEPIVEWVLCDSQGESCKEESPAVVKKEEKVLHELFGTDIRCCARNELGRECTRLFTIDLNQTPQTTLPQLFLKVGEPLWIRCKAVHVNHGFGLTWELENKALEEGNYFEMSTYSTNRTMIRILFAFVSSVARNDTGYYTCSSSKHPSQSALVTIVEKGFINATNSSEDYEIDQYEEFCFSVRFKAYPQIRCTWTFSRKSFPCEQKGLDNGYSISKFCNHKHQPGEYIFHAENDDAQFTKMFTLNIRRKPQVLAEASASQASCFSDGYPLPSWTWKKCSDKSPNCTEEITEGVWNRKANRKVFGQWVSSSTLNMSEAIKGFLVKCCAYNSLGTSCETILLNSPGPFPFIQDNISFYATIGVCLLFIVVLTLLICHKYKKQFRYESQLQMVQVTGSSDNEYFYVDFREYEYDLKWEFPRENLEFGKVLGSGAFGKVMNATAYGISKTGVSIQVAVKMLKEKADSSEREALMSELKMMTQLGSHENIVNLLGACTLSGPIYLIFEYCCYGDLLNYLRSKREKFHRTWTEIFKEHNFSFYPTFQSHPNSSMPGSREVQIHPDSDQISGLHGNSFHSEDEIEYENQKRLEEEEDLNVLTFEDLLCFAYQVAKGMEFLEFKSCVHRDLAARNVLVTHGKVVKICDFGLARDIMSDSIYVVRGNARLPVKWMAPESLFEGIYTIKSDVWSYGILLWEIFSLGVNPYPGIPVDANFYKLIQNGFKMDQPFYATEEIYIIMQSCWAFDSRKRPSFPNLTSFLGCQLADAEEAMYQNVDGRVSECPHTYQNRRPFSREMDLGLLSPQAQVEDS
The experiment can be described thus: biochemical. The conditions noted are these: read-out: Percent control.

The target of experiment [2] is EGFR(T790M) (Homo sapiens, UniProt P00533, T790M). The following applies: 10 μM.
Sequence of EGFR(T790M) (P00533 25-1210 T790M): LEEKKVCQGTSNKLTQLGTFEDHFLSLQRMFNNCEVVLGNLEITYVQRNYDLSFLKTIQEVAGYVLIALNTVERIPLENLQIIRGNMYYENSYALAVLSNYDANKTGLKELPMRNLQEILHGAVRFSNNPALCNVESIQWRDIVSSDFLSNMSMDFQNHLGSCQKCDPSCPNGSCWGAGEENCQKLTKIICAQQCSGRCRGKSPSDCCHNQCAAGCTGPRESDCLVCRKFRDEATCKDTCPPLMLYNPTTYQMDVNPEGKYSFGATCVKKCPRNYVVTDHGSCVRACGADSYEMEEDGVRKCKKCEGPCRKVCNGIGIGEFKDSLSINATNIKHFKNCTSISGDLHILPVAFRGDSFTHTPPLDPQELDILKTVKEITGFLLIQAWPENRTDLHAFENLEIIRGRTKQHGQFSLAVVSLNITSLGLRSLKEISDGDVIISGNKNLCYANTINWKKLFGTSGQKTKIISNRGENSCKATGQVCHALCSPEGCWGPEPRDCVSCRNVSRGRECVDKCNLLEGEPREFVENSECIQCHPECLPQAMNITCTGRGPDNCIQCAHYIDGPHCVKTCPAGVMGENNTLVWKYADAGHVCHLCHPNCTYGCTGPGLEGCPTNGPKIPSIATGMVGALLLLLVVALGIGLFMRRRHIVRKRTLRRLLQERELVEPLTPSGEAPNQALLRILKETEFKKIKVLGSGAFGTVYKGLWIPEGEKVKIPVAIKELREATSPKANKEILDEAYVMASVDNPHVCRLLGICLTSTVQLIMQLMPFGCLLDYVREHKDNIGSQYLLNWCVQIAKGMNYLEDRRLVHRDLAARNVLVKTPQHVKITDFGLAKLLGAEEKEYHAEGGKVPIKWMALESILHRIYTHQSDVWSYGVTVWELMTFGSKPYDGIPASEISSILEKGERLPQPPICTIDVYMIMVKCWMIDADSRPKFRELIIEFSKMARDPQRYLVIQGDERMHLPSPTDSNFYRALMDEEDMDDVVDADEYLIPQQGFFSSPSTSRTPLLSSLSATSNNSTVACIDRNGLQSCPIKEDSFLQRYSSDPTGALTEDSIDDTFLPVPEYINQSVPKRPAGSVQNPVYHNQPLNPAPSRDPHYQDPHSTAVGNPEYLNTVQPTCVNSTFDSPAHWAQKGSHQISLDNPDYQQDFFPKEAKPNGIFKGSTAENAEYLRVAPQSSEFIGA

For `C#Cc1cccc(Nc2ncnc3cc(OCCOC)c(OCCOC)cc23)c1` [Erlotinib], the remaining activity at 10 µM in experiment [1] amounted to 4.8%.

In experiment [2], `Cc1ccc(NC(=O)c2ccc(CN3CCN(C)CC3)cc2)cc1Nc1nccc(-c2cccnc2)[n+]1[Pt-2]1([Cl])[NH2+]C2CCCCC2[NH2+]1` (centres unmarked) [1b, oxaliplatin-imatinib] came in with a Percent control of 78%.
